Measurements published in ChEMBL document CHEMBL5465560, “Selectivity Literature for EUbOPEN Chemogenomic Library” (2024).

How the values were obtained:
[1] = target: Protein-tyrosine kinase 2-beta (Homo sapiens) (UniProt Q14289); experiment: Selectivity interaction (KinomeScan (DiscoverX)) EUB0000229b PTK2B; settings: at 10 µM
[2] = target: T1, Serine/threonine-protein kinase TNNI3K (Homo sapiens) (UniProt Q59H18); experiment: Selectivity interaction (KinomeScan (DiscoverX)) EUB0001079a TNNI3K; settings: at 1 µM
T1 sequence (whole entry): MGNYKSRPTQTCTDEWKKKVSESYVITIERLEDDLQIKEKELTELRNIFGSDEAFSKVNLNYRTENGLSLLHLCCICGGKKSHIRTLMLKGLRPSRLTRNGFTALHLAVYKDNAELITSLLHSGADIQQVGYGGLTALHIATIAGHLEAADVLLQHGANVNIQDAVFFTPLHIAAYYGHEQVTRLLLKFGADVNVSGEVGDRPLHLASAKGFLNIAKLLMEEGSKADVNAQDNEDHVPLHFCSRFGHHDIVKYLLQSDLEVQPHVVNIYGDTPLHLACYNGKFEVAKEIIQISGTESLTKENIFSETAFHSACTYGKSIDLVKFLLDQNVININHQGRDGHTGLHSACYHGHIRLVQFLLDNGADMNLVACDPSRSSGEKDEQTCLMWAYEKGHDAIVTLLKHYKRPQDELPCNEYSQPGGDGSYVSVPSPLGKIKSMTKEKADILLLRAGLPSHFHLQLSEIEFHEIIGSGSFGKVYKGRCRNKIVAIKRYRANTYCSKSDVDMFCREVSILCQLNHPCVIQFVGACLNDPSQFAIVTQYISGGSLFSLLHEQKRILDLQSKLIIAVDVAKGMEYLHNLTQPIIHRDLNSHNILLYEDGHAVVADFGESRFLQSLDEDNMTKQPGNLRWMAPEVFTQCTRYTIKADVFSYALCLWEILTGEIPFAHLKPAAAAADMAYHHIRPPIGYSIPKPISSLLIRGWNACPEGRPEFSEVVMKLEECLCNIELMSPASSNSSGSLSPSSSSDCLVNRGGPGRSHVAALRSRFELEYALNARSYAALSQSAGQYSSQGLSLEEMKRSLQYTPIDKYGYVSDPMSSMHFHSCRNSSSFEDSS

[3] = target: T2, Dual specificity mitogen-activated protein kinase kinase 4 (Homo sapiens) (UniProt P45985); experiment: Selectivity interaction (KinomeScan (DiscoverX)) EUB0000666a MAP2K4; settings: at 10 µM
T2 sequence (whole entry): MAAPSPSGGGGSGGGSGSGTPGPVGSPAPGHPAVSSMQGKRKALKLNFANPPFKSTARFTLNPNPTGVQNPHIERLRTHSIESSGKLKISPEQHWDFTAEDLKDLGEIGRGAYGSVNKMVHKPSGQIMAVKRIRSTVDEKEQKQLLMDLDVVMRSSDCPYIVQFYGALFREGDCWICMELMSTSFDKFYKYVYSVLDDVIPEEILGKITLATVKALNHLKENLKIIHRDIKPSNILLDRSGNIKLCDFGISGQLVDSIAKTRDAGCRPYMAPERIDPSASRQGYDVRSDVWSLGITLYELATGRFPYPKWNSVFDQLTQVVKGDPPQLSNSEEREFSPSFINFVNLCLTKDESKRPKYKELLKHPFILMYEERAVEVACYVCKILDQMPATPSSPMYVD

[4] = target: T3, Serine/threonine-protein kinase 3 (Homo sapiens) (UniProt Q13188); experiment: Selectivity interaction (KinomeScan (DiscoverX)) EUB0001049a STK3; settings: at 1 µM
T3 sequence (whole entry): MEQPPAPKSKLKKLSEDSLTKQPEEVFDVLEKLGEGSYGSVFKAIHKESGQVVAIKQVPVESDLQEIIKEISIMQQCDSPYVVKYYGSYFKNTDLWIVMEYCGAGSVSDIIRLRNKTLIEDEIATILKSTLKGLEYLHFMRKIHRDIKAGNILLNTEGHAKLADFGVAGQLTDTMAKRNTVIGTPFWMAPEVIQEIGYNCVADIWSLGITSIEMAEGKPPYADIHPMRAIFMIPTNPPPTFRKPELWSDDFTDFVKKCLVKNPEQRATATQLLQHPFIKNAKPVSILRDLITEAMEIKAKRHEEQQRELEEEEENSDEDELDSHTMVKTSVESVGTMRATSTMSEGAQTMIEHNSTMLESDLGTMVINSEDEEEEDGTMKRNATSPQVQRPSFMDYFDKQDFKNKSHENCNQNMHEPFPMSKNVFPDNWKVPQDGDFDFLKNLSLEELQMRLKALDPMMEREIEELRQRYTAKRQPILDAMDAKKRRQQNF

[5] = target: RAC-beta serine/threonine-protein kinase (Homo sapiens) (UniProt P31751); experiment: Selectivity interaction (KinomeScan (DiscoverX)) EUB0001619a AKT2; settings: at 1 µM
RAC-beta serine/threonine-protein kinase (Homo sapiens), sequence (P31751 whole entry): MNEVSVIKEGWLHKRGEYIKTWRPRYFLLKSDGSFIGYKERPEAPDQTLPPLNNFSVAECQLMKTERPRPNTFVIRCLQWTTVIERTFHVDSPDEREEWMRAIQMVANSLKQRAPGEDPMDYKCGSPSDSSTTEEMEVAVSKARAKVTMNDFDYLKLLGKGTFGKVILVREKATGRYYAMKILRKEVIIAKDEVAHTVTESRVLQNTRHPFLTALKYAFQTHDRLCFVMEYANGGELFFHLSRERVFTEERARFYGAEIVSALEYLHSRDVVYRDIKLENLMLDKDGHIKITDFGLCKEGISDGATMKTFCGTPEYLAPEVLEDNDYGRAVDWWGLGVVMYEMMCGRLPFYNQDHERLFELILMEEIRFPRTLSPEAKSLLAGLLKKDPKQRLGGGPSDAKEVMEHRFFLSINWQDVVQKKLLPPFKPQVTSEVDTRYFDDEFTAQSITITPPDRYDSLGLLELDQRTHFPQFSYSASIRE

[6] = target: Tyrosine-protein kinase Lck (Homo sapiens, UniProt P06239); experiment: Selectivity interaction (Enzymatic assay) EUB0001199aCl LCK
Tyrosine-protein kinase Lck, sequence (P06239 whole entry): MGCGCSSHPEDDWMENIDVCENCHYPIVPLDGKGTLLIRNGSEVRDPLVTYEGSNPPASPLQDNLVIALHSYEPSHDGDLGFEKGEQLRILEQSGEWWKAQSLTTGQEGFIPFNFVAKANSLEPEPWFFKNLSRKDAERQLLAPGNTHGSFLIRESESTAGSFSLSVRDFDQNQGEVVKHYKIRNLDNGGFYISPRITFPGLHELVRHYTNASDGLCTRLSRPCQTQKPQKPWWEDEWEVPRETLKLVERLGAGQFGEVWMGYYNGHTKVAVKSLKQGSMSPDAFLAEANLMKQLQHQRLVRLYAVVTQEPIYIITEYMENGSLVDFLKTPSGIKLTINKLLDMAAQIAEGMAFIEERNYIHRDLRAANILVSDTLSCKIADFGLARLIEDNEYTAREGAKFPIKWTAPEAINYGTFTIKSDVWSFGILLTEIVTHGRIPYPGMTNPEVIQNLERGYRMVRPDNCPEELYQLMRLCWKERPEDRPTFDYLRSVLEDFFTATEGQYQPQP

Protein-tyrosine kinase 2-beta (Homo sapiens), sequence (Q14289 whole entry, looked up): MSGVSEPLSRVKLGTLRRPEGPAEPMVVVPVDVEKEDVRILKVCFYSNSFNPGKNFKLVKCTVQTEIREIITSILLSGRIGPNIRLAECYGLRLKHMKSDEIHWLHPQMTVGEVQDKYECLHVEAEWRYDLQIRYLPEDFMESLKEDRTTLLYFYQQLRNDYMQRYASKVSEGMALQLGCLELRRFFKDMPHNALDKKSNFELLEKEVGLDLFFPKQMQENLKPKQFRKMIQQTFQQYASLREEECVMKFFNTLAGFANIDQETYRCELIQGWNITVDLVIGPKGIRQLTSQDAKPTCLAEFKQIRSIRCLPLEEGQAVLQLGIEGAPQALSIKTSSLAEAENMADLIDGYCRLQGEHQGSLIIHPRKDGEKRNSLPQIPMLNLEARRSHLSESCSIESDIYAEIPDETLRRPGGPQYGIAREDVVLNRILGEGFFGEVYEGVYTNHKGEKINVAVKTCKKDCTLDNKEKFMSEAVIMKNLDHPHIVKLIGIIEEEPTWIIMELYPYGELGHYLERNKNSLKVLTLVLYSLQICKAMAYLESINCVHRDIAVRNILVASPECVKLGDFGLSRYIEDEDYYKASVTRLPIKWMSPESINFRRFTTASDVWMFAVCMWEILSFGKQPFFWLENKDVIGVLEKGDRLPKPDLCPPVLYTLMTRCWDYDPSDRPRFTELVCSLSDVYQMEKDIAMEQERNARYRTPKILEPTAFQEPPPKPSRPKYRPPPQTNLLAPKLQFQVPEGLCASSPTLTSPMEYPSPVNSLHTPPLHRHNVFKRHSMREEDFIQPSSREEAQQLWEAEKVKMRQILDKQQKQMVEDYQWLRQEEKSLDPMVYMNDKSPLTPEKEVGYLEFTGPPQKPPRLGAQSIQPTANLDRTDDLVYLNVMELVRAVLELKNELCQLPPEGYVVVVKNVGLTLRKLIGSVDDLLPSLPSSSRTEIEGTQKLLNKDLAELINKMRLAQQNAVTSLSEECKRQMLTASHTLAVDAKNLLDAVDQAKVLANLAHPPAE

COc1cc(N(C)c2ccnc3ccc(C(F)(F)F)cc23)cc(OC)c1OC
% binding [1]: 95%

Nc1cnc(N2CCc3cc(S(=O)(=O)Nc4c(F)cc(Cl)cc4F)cc(N4CCCC4=O)c32)nc1 [TP-020n]
% of control [2]: 49%

O=C(NOC[C@H](O)CO)c1ccc(F)c(F)c1Nc1ccc(I)cc1F
% of control [3]: 83%

COc1cc(Nc2nc(C)cc(-c3cnn4nc(OC)ccc34)n2)cc(C(F)(F)F)c1
% of control [4]: 100%

N#Cc1cccc(-c2c[nH]c3ncnc(N4CCOCC4)c23)c1
% of control [5]: 100%

CN1Cc2nccc(-c3cn(C)nc3-c3ccc(F)cc3)c2C1=O
IC50 [6]: 10.2 µM
